Results on 3 compounds are retold here after patent publication US20190076467A1, “ANTIVIRAL CONJUGATES OF P[…] AND ANTIVIRAL DRUG” (priority 2015, published 2019).

By pKa is commonly meant the pH at which an ionisable group is half protonated.

For data set [1] the following is noted: cited from earlier work.
In the next data set the test system is Measles. The class given is cell-based.
The next data set deals with Ebola virus. The class given is cell-based, Ebola Zaire.

Turning to `C=C(C)C(=O)O` [methacrylic acid], the pKa in data set [1] is given as 6.5.

Regarding `C=CC(=O)O` [acrylic acid], in data set [1], the pKa is given as 4.5. Take `NC(=O)c1ncn([C@@H]2O[C@H](CO)[C@@H](O)[C@H]2O)n1` [Ribavirin]: the “Activity against measles infectivity” value with Measles is given as “no activity”. In addition, the “Effect on proliferation of Ebola virus (qRT-PCR cycle number)” value with Ebola virus is reported as “no measurable effect”.
